Assay results reported in ChEMBL document CHEMBL1201862, “PubChem BioAssay data set” (2004).
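Five concentrations, 48 hours, 96-well plates. Abbreviation: GI50, concentration required for 50% inhibition of growth.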 The source made the active and inactive calls. No stated cut-off is given here; in the data, active = GI50 up to about 1.1 µM and inactive = higher.

What was measured:
Assay in all cases: NCI anticancer screen, dose series, 48 h
786-0 = test system: 786-0
A549 = test system: A549
CAKI-1 = test system: CAKI-1
CCRF-CEM = test system: CCRF-CEM
IGROV-1 = test system: IGROV-1
KM12 = test system: KM12
NCI-H460 = test system: NCI-H460
RPMI-8226 = test system: RPMI-8226
SF-268 = test system: SF-268
SF-539 = test system: SF-539
SK-MEL-5 = test system: SK-MEL-5
SNB-19 = test system: SNB-19
SW-620 = test system: SW-620
TK-10 = test system: TK-10
HL-60 = test system: HL-60
SR = test system: SR
NCI-H226 = test system: NCI-H226

Measured: GI50

c1ccc2c(c1)CCCc1cc3ccccc3nc1-2
inactive: 786-0 > 100 µM | A549 > 100 µM | CAKI-1 > 100 µM | CCRF-CEM 94.6 µM | IGROV-1 > 100 µM | KM12 > 100 µM | NCI-H460 > 100 µM | RPMI-8226 31 µM | SF-268 92.5 µM | SF-539 > 100 µM | SK-MEL-5 92.5 µM | SNB-19 > 100 µM | SW-620 > 100 µM | TK-10 > 100 µM

Cc1cc2c(=O)c3ccccc3[nH]c2c(C(=O)O)c1C
inactive: 786-0 > 100 µM | A549 > 100 µM | CAKI-1 > 100 µM | CCRF-CEM > 100 µM | HL-60 70.8 µM | IGROV-1 > 100 µM | KM12 > 100 µM | NCI-H460 > 100 µM | RPMI-8226 > 100 µM | SF-539 > 100 µM | SNB-19 > 100 µM | SR > 100 µM | SW-620 > 100 µM

CCOC(=O)C(C(=O)OCC)=C1C=C(c2ccccc2)c2ccccc21
inactive: 786-0 28.5 µM | A549 79.3 µM | CCRF-CEM 27.5 µM | HL-60 20.5 µM | IGROV-1 > 100 µM | KM12 37.4 µM | NCI-H226 78.9 µM | NCI-H460 31.8 µM | RPMI-8226 16.6 µM | SF-268 > 100 µM | SF-539 62.7 µM | SK-MEL-5 31.1 µM | SNB-19 > 100 µM | SW-620 89.3 µM | TK-10 79.1 µM

CC(=O)SC(SC(C)=O)SC(C)=O
inactive: 786-0 > 100 µM | A549 37.2 µM | CCRF-CEM 22.5 µM | HL-60 51.3 µM | IGROV-1 > 100 µM | KM12 > 100 µM | NCI-H226 > 100 µM | NCI-H460 > 100 µM | SF-268 > 100 µM | SF-539 > 100 µM | SK-MEL-5 > 100 µM | SNB-19 > 100 µM | SW-620 > 100 µM | TK-10 > 100 µM

O=C1NC2(CCCCCC2)C2CCCCCCC12O (stereo not drawn)
inactive: 786-0 > 100 µM | A549 > 100 µM | CAKI-1 > 100 µM | CCRF-CEM > 100 µM | HL-60 > 100 µM | IGROV-1 > 100 µM | KM12 > 100 µM | NCI-H460 > 100 µM | SF-268 > 100 µM | SF-539 > 100 µM | SK-MEL-5 > 100 µM | SNB-19 > 100 µM | SR > 100 µM | SW-620 > 100 µM | TK-10 > 100 µM

O=C(NCCO)c1ccc([N+](=O)[O-])cc1
inactive: 786-0 > 100 µM | A549 > 100 µM | CAKI-1 > 100 µM | CCRF-CEM > 100 µM | HL-60 > 100 µM | IGROV-1 > 100 µM | KM12 > 100 µM | NCI-H226 > 100 µM | NCI-H460 > 100 µM | RPMI-8226 > 100 µM | SF-268 > 100 µM | SF-539 > 100 µM | SK-MEL-5 > 100 µM | SNB-19 > 100 µM | SW-620 > 100 µM | TK-10 > 100 µM

C/C(CC(=O)Nc1ccc([N+](=O)[O-])cc1)=N\Nc1ccc([N+](=O)[O-])cc1[N+](=O)[O-]
inactive: 786-0 > 100 µM | A549 44.7 µM | CCRF-CEM 45 µM | HL-60 31.9 µM | IGROV-1 71.8 µM | KM12 29.3 µM | NCI-H226 52.7 µM | NCI-H460 44.4 µM | RPMI-8226 56.4 µM | SF-268 62.1 µM | SF-539 41 µM | SK-MEL-5 47.4 µM | SW-620 > 100 µM | TK-10 > 100 µM

CC(=O)C1C(c2ccccc2)C2(C)OC(=O)C(C#N)C12C (stereo not drawn)
inactive: 786-0 > 100 µM | A549 > 100 µM | CCRF-CEM > 100 µM | HL-60 > 100 µM | IGROV-1 > 100 µM | KM12 > 100 µM | NCI-H226 > 100 µM | NCI-H460 > 100 µM | RPMI-8226 > 100 µM | SF-268 > 100 µM | SF-539 > 100 µM | SK-MEL-5 > 100 µM | SNB-19 > 100 µM | SW-620 > 100 µM | TK-10 > 100 µM

Cc1ccc(-c2cc(=O)c3cc(C)c(C)c(C(=O)O)c3o2)cc1N
inactive: 786-0 > 100 µM | A549 > 100 µM | CAKI-1 > 100 µM | CCRF-CEM > 100 µM | IGROV-1 > 100 µM | KM12 > 100 µM | NCI-H226 > 100 µM | NCI-H460 > 100 µM | RPMI-8226 > 100 µM | SF-268 > 100 µM | SF-539 > 100 µM | SK-MEL-5 > 100 µM | SNB-19 > 100 µM | SW-620 > 100 µM | TK-10 > 100 µM

C=CCC1=C(C)C[C@@H]2CCC(=O)C=C12
inactive: 786-0 > 100 µM | A549 > 100 µM | CAKI-1 > 100 µM | CCRF-CEM > 100 µM | HL-60 > 100 µM | IGROV-1 > 100 µM | KM12 > 100 µM | NCI-H460 > 100 µM | RPMI-8226 > 100 µM | SF-268 > 100 µM | SF-539 > 100 µM | SK-MEL-5 > 100 µM | SNB-19 > 100 µM | SW-620 > 100 µM | TK-10 > 100 µM

COc1ccc(O)cc1C(O)c1ccccc1 (stereo not drawn)
inactive: 786-0 > 100 µM | A549 > 100 µM | CAKI-1 > 100 µM | CCRF-CEM > 100 µM | HL-60 > 100 µM | IGROV-1 > 100 µM | KM12 > 100 µM | NCI-H226 > 100 µM | NCI-H460 > 100 µM | SF-268 > 100 µM | SF-539 > 100 µM | SK-MEL-5 > 100 µM | SNB-19 > 100 µM | SW-620 > 100 µM | TK-10 > 100 µM

Brc1cccc(/C=N/C23CC4CC(CC(C4)C2)C3)c1
inactive: 786-0 > 100 µM | A549 > 100 µM | CAKI-1 > 100 µM | CCRF-CEM > 100 µM | HL-60 > 100 µM | IGROV-1 > 100 µM | KM12 > 100 µM | NCI-H226 > 100 µM | NCI-H460 > 100 µM | RPMI-8226 > 100 µM | SF-268 > 100 µM | SF-539 > 100 µM | SK-MEL-5 > 100 µM | SNB-19 > 100 µM | SW-620 > 100 µM | TK-10 > 100 µM

C=CCNC(=S)N/C=C1\C(=O)Oc2ccccc2C1=O
inactive: 786-0 55 µM | A549 93.8 µM | CAKI-1 22.2 µM | CCRF-CEM > 100 µM | HL-60 > 100 µM | IGROV-1 41.6 µM | KM12 87.5 µM | NCI-H226 28.9 µM | NCI-H460 > 100 µM | RPMI-8226 > 100 µM | SF-268 36 µM | SF-539 55.5 µM | SK-MEL-5 43.8 µM | SNB-19 59.4 µM | SW-620 74.6 µM | TK-10 64.7 µM
